# Measurements reported in patent US20240009201A1, “CYP11B2 BETA HYDROXYLASE INHIBITORS FOR HYPERTENSION” (MINERALYS THERAPEUTICS, INC., priority 2020, published 2024).
# Structures can show the parent of a compound that is named as a salt.
# Assays:
# Format in all cases: in vivo
# CYP11B2 = molecular target: T1, CYP11B2 (Mus musculus, UniProt P15539); test: Radio-telemetry blood pressure in low renin hypertension animal model (Ay mice); conditions: 3 mg/kg/day via mini-osmotic pump, 7 days, FIG. 14
# T1 construct: from tissue; host or cells: living mice (endogenous enzyme); obese AY mice, Balb/C mice (Jackson Labs #000651)
# T1 sequence (P15539 25-500): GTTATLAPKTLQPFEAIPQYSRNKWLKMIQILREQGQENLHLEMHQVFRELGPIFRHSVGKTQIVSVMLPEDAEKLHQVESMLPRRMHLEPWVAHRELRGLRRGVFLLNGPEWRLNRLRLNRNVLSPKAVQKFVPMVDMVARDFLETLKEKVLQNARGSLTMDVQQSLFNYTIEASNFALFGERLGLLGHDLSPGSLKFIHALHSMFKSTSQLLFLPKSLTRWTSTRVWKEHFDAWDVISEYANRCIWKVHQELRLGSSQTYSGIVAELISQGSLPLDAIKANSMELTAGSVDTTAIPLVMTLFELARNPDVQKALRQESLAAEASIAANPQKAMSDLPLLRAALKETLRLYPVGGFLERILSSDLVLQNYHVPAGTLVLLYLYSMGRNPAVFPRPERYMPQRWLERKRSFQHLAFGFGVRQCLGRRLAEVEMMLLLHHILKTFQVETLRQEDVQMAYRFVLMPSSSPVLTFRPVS
# Procedure: Purpose: To determine whether CYP11B2 blockade (via aldosterone synthase inhibition) improves cardiovascular function in an animal model for low renin hypertension.
# Animal Model: All experiments were conducted in 12-16-week-old obese AY female mice.
# Telemetry Protocol: The telemetry protocol is illustrated in FIG. 13.
# Treatment Protocol: Male and female Balb/C mice (Jackson Labs, Bar Harbor, ME, Catalog #000651) at 10 weeks of age were utilized for all studies. Mice were implanted with indwelling telemeters (carotid catheter) (DSI© Model #PA-C10, New Brighton, MN) under isoflurane anesthesia as previously described. Following a 7-day recovery period baseline BP measurements were consciously recorded for 7 days while mice were on normal salt diet (NS) (0.2% NaCl, Teklad #2918, Envigo, United Kingdom). Mice were then treated with the test article (compound of formula (A), LCI699 or CIN-107, calculated to deliver 3 mg/kg/day) infused via an implanted mini-osmotic pump for an additional 7 days.
# Blood pressure measurement: For each protocol described in FIG. 13, 12 mice were used to record systolic, diastolic, mean arterial pressure heart rate and activity via radio-telemetry. Telemetry transmitters were implanted in the carotid artery at 12 weeks of age. After 2 weeks of recovery from surgery, baseline blood pressure was recorded for 7 consecutive days. Animals were then submitted to the treatment (compound of formula (A) HBr/LCI/CIN).
# Quantification of the effects of compound of formula (A) HBr, LCI, CIN on the degree of RAAS activation: Blood was collected from all the treated mice to investigate the effects of the aldosterone synthase inhibitors on plasma aldosterone, Angiotensin II and indices of RAS activation via LC-MS/MS.
# aldosterone synthase [1] = molecular target: T2, aldosterone synthase (Homo sapiens, UniProt P19099); test: Randomized, double-blinded, placebo-controlled SAD and MAD study (overall findings)
# T2 construct: from tissue; host or cells: living human subjects (endogenous adrenal enzyme)
# T2 sequence (P19099 25-503): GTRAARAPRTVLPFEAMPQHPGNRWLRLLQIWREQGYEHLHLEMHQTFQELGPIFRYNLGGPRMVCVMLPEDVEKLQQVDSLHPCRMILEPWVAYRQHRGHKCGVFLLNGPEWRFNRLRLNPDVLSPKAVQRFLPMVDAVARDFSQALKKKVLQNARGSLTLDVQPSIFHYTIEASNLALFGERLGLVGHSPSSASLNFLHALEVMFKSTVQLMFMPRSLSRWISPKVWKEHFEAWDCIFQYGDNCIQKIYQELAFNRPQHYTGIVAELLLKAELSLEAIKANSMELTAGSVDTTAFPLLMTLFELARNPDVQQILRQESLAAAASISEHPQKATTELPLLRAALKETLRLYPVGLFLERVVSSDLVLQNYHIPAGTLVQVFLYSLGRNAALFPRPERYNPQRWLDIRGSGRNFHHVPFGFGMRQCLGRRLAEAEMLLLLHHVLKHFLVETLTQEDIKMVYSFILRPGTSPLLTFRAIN
# Description: Aldosterone is produced by an aldosterone synthase, encoded by the gene CYP11B2. Aldosterone synthase catalyzes the final 3 steps in aldosterone synthesis, sequentially (1) from 11-deoxycorticosterone (11-DOC) to corticosterone, (2) from corticosterone to 18-OH-corticosterone, and (3) from 18-OH-corticosterone to aldosterone. […] 11β-hydroxylase catalyzes the conversion of 11-deoxycortisol to cortisol, and 11-deoxycorticosterone (11-DOC) to corticosterone.
# Because 11-DOC is a substrate for both CYP11B1 and CYP11B2, use of a selective aldosterone synthase inhibitor which preserves the activity of CYP11B1 is important for preventing accumulation of the precursor 11-DOC.
# (§1) Single Ascending Dose (SAD) and Multiple Ascending Dose (MAD) Study
# (§2) A randomized, double-blinded, placebo-controlled study was conducted in which 116 patients were randomized and 87 received the compound of Formula A in the form of an HBr salt.
# aldosterone synthase [2] = molecular target: T2, aldosterone synthase; test: Multiple ascending dose (MAD) study
# Procedure: as §1, §2
# aldosterone synthase [3] = molecular target: T2, aldosterone synthase; test: Single ascending dose (SAD) study
# Procedure: as §1, §2
# Exposure above about 3-4 times the inhibition constant (Ki) was associated with duration of aldosterone suppression (FIG. 4).
smiles,measurement,setting,value
CCC(=O)N[C@@H]1CCCc2c(-c3ccc4c(c3)CCC(=O)N4C)cncc21 [CIN-107],mean arterial blood pressure (MAP),CYP11B2,reduced MAP to a similar degree and to a value comparable to that seen in control mice
N#Cc1ccc([C@H]2CCc3cncn32)c(F)c1 [LCI699],mean arterial blood pressure (MAP),CYP11B2,reduced MAP to a similar degree and to a value comparable to that seen in control mice
"CC(=O)N[C@H]1CC[C@H](NC(=O)CN2CCN(c3nncc(-c4ccc(C)cc4)n3)CC2)CC1 [compound of Formula (A), N-[trans-4-(acetylamino)cyclohexyl]-2-{4-[5-(4-methylphenyl)-1,2,4-triazin-3-yl]piperazin-1-yl}acetamide]",dose range of aldosterone suppression without increase in 11-DOC or change in cortisol production (selectivity),aldosterone synthase [1]; in vivo,wide does range at which aldosterone is suppressed without an increase in 11-DOC or change in cortisol production
"CC(=O)N[C@H]1CC[C@H](NC(=O)CN2CCN(c3nncc(-c4ccc(C)cc4)n3)CC2)CC1 [Compound A HBr, N-[trans-4-(acetylamino)cyclohexyl]-2-{4-[5-(4-methylphenyl)-1,2,4-triazin-3-yl]piperazin-1-yl}acetamide monohydrobromide]",11-DOC level,"aldosterone synthase [2]; 360 mg dose level, FIG. 7",Accumulation of 11-DOC
same,serum aldosterone during the washout phase,"aldosterone synthase [2]; 360 mg dose, FIG. 6",overshoot in serum aldosterone
same,Plasma Renin Activity (PRA),aldosterone synthase [2]; FIG. 9,dose-dependent increase
same,dose giving 50% of maximum increase in Plasma Renin Activity (PRA),aldosterone synthase [2]; FIG. 9,40 mg
same,benefits on renal tubular sodium excretion,aldosterone synthase [2]; FIG. 12,seen at lower doses than are required for stimulation of renin and accumulation of 11-DOC
same,serum K+,"aldosterone synthase [2]; all doses tested, FIG. 10","physiological, non-adverse, increase in K^+"
same,adrenocorticotropic hormone (ACTH)-stimulated aldosterone secretion,"aldosterone synthase [2]; all doses tested, FIG. 11",suppression of adrenocorticotropic hormone (ACTH)-stimulated aldosterone secretion
same,dose-effect on duration of maximum aldosterone suppression,"aldosterone synthase [2]; day 7, FIG. 8",consistent with the SAD study
same,drug accumulation,aldosterone synthase [2]; multiple dosing,little drug accumulation
same,mean arterial blood pressure (MAP),CYP11B2,reduced MAP to a similar degree and to a value comparable to that seen in control mice
same,serum cortisol,aldosterone synthase [3]; FIG. 2 (AUC-24),no evidence of dose-dependent reduction in serum cortisol
same,exposure associated with duration of aldosterone suppression,aldosterone synthase [3]; FIG. 4 (Cpu/Ki),3-4 times the inhibition constant (Ki)
same,duration of maximum aldosterone suppression,aldosterone synthase [3]; FIG. 5,dose-dependent increase
same,reduction of serum aldosterone,"aldosterone synthase [3]; dose of 50 mg, FIG. 1 (AUC-24)",50%
same,"clinical laboratory, vital signs, ECGs or physical examination",aldosterone synthase [1]; SAD/MAD study,No clinically significant findings
same,deaths or serious adverse events (SAEs),aldosterone synthase [1]; SAD/MAD study,No deaths or serious adverse events (SAEs) occurred
same,effect on cortisol levels,aldosterone synthase [1]; SAD/MAD study,no effect on cortisol levels
same,hyperkalemia,aldosterone synthase [1]; SAD/MAD study,No hyperkalemia was noted
same,plasma aldosterone,"aldosterone synthase [1]; SAD/MAD study, 87 received the compound",rapid and durable reduction/suppression of plasma aldosterone
same,adverse events (AEs),aldosterone synthase [1]; compound groups vs placebo groups,comparable between the groups receiving the compound and placebo groups
